According to US9611277B2 (Janssen Pharmaceutica NV, priority 2013, dated 2017):

How the values were obtained:
human orexin 2 receptor = human orexin 2 receptor (Homo sapiens (Human), UniProt O43614); assay: Human orexin 2 receptor radioligand binding; conditions: human orexin 2 receptor; averages of 2-20 runs; read-out: hOX2 Ki
In short: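 Ki derived from one-site competition IC50 using predetermined Kd of [3H]-EMPA, triplicate points, 2-20 runs averaged. Binding done on homogenized HEK293 cells stably expressing human orexin 2 receptor, DMSO ≤0.1%, with 10 μM almorexant defining nonspecific binding; filtered, washed, scintillation counted.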

rat orexin 1 receptor = rat orexin 1 receptor (Rattus norvegicus, UniProt P56718); assay: Rat orexin 1 receptor radioligand binding; conditions: rat orexin 1 receptor; averages of 2-20 runs; read-out: rOX1 Ki
In short: (§1)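 Ki values derive from one-site competition IC50s corrected with the radioligand's predetermined Kd, triplicates per run, averaged over 2-20 runs. Cell homogenates (rat or human OX1R) compete against [^3H]-thiazolyl-oxadiazolyl-pyrrolidine methanone in PBS; 10 μM almorexant sets nonspecific binding; scintillation counting after washing.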

human orexin 1 receptor = human orexin 1 receptor (Homo sapiens, UniProt O43613); assay: Human orexin 1 receptor radioligand binding; conditions: human orexin 1 receptor; averages of 2-20 runs; read-out: hOX1 Ki
In short: as §1

human orexin 2 receptor, sequence (O43614 whole entry): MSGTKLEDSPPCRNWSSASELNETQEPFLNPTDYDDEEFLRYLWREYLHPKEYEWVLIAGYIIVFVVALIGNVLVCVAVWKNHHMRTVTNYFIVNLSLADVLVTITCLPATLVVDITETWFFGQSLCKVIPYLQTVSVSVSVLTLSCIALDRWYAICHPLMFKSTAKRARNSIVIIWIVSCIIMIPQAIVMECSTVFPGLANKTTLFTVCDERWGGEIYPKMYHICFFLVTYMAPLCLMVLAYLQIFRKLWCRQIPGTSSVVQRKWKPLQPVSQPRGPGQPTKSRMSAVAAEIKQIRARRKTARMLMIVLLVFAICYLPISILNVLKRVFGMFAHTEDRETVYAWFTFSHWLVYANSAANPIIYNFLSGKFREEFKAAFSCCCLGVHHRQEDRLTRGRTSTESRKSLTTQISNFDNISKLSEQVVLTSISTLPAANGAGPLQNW

Structure (SMILES) | Ki (human orexin 2 receptor) [nM] | Ki (rat orexin 1 receptor) [nM] | Ki (human orexin 1 receptor) [nM]
O=C(c1ccc(F)cc1-c1ncccn1)N1C[C@H]2C[C@@H](Nc3ccc(Cl)cn3)[C@@H]1C2 [Example 171, ((1S,4S,6R)-6-((5-chloropyridin-2-yl)amino)-2-azabicyclo[2.2.1]heptan-2-yl)(4-fluoro-2-(pyrimidin-2-yl)phenyl)methanone] | 1900 | 27 | 25
O=C(c1ccccc1-n1nccn1)N1C[C@H]2C[C@@H](Nc3ccc(C(F)F)cn3)[C@@H]1C2 [Example 173, (2-(2H-1,2,3-triazol-2-yl)phenyl)((1S,4S,6R)-6-((5-(difluoromethyl)pyridin-2-yl)amino)-2-azabicyclo[2.2.1]heptan-2-yl)methanone] | 264 | 55 | 33
O=C(c1cccc(F)c1-c1ncccn1)N1C[C@H]2C[C@@H](Nc3ccc(C(F)F)cn3)[C@@H]1C2 [Example 174, ((1S,4S,6R)-6-((5-(difluoromethyl)pyridin-2-yl)amino)-2-azabicyclo[2.2.1]heptan-2-yl)(3-fluoro-2-(pyrimidin-2-yl)phenyl)methanone] | 230 | 18 | 15
COc1ccc(N[C@@H]2C[C@H]3C[C@@H]2N(C(=O)c2ccccc2-n2nccn2)C3)nc1 [Example 175, (2-(2H-1,2,3-triazol-2-yl)phenyl)((1S,4S,6R)-6-((5-methoxypyridin-2-yl)amino)-2-azabicyclo[2.2.1]heptan-2-yl)methanone] | 844 | 170 | 191
COc1ccc(N[C@@H]2C[C@H]3C[C@@H]2N(C(=O)c2cccc(F)c2-c2ncccn2)C3)nc1 [Example 176, (3-fluoro-2-(pyrimidin-2-yl)phenyl)((1S,4S,6R)-6-((5-methoxypyridin-2-yl)amino)-2-azabicyclo[2.2.1]heptan-2-yl)methanone] | 1300 | 56 | 52
O=C(c1ccccc1-n1nccn1)N1C[C@H]2C[C@@H](Nc3ncc(C(F)(F)F)cc3F)[C@@H]1C2 [Example 177, (2-(2H-1,2,3-triazol-2-yl)phenyl)((1S,4S,6R)-6-((3-fluoro-5-(trifluoromethyl)pyridin-2-yl)amino)-2-azabicyclo[2.2.1]heptan-2-yl)methanone] | 200 | 3 | 3
Cc1ccc(-n2nccn2)c(C(=O)N2C[C@H]3C[C@@H](Nc4ncc(C(F)(F)F)cc4F)[C@@H]2C3)n1 [Example 178, ((1S,4S,6R)-6-((3-fluoro-5-(trifluoromethyl)pyridin-2-yl)amino)-2-azabicyclo[2.2.1]heptan-2-yl)(6-methyl-3-(2H-1,2,3-triazol-2-yl)pyridin-2-yl)methanone] | 112 | 6 | 8
O=C(c1cccc(F)c1-c1ncccn1)N1C[C@H]2C[C@@H](Nc3ncc(C(F)(F)F)cc3F)[C@@H]1C2 [Example 179, (3-fluoro-2-(pyrimidin-2-yl)phenyl)((1S,4S,6R)-6-((3-fluoro-5-(trifluoromethyl)pyridin-2-yl)amino)-2-azabicyclo[2.2.1]heptan-2-yl)methanone] | 217 | 5 | 5
O=C(c1ccccc1-c1ncc(F)cn1)N1C[C@H]2C[C@@H](Nc3ncc(C(F)(F)F)cc3F)[C@@H]1C2 [Example 180, ((1S,4S,6R)-6-((3-fluoro-5-(trifluoromethyl)pyridin-2-yl)amino)-2-azabicyclo[2.2.1]heptan-2-yl)(2-(5-fluoropyrimidin-2-yl)phenyl)methanone] | 380 | 6 | 5
Cc1ccc(-n2nccn2)c(C(=O)N2C[C@H]3C[C@@H](Nc4nc5ccccc5o4)[C@@H]2C3)n1 [Example 181, ((1S,4S,6R)-6-(benzo[d]oxazol-2-ylamino)-2-azabicyclo[2.2.1]heptan-2-yl)(6-methyl-3-(2H-1,2,3-triazol-2-yl)pyridin-2-yl)methanone] | 163 | 5 | 8
O=C(c1cccc(F)c1-n1nccn1)N1C[C@H]2C[C@@H](Nc3nc4ccccc4o3)[C@@H]1C2 [Example 182, ((1S,4S,6R)-6-(benzo[d]oxazol-2-ylamino)-2-azabicyclo[2.2.1]heptan-2-yl)(3-fluoro-2-(2H-1,2,3-triazol-2-yl)phenyl)methanone] | 218 | 3 | 4
O=C(c1cccc(F)c1-c1ncccn1)N1C[C@H]2C[C@@H](Nc3nc4ccccc4o3)[C@@H]1C2 [Example 183, ((1S,4S,6R)-6-(benzo[d]oxazol-2-ylamino)-2-azabicyclo[2.2.1]heptan-2-yl)(3-fluoro-2-(pyrimidin-2-yl)phenyl)methanone] | 206 | 5 | 7
Cc1ccc(N[C@@H]2C[C@H]3C[C@@H]2N(C(=O)c2cccc(F)c2-c2ncccn2)C3)cc1 [Example 184, (3-fluoro-2-(pyrimidin-2-yl)phenyl)((1S,4S,6R)-6-(p-tolylamino)-2-azabicyclo[2.2.1]heptan-2-yl)methanone] | 337 | 13 | 15
O=C(c1cccc2cc[nH]c12)N1C[C@H]2C[C@@H](Nc3ccc(C(F)(F)F)cn3)[C@@H]1C2 [Example 185, (1H-indol-7-yl)((1S,4S,6R)-6-((5-(trifluoromethyl)pyridin-2-yl)amino)-2-azabicyclo[2.2.1]heptan-2-yl)methanone] | 146 | 27 | 33
O=C(c1cccc2cn[nH]c12)N1C[C@H]2C[C@@H](Nc3ccc(C(F)(F)F)cn3)[C@@H]1C2 [Example 186, (1H-indazol-7-yl)((1S,4S,6R)-6-((5-(trifluoromethyl)pyridin-2-yl)amino)-2-azabicyclo[2.2.1]heptan-2-yl)methanone] | 2700 | 123 | 151
Cc1cnc(C(=O)N2C[C@H]3C[C@@H](Nc4cnc(C(F)(F)F)cn4)[C@@H]2C3)c(-n2nccn2)c1 [Example 187, (5-methyl-3-(2H-1,2,3-triazol-2-yl)pyridin-2-yl)((1S,4S,6R)-6-((5-(trifluoromethyl)pyrazin-2-yl)amino)-2-azabicyclo[2.2.1]heptan-2-yl)methanone] | 1600 | 28 | 30
O=C(c1cccnc1-n1nccn1)N1C[C@H]2C[C@@H](Nc3cnc(C(F)(F)F)cn3)[C@@H]1C2 [Example 188, (2-(2H-1,2,3-triazol-2-yl)pyridin-3-yl)((1S,4S,6R)-6-((5-(trifluoromethyl)pyrazin-2-yl)amino)-2-azabicyclo[2.2.1]heptan-2-yl)methanone] | > 10000 | 191 | 210
O=C(c1ncccc1-c1ncccn1)N1C[C@H]2C[C@@H](Nc3cnc(C(F)(F)F)cn3)[C@@H]1C2 [Example 189, (3-(pyrimidin-2-yl)pyridin-2-yl)((1S,4S,6R)-6-((5-(trifluoromethyl)pyrazin-2-yl)amino)-2-azabicyclo[2.2.1]heptan-2-yl)methanone] | 678 | 14 | 11
Cc1cnc(C(=O)N2C[C@H]3C[C@@H](Nc4cnc(C(F)(F)F)cn4)[C@@H]2C3)c(-c2ncccn2)c1 [Example 190, (5-methyl-3-(pyrimidin-2-yl)pyridin-2-yl)((1S,4S,6R)-6-((5-(trifluoromethyl)pyrazin-2-yl)amino)-2-azabicyclo[2.2.1]heptan-2-yl)methanone] | > 10000 | 12 | 12
Cc1ccc(-c2ncccn2)c(C(=O)N2C[C@H]3C[C@@H](Nc4cnc(C(F)(F)F)cn4)[C@@H]2C3)n1 [Example 191, (6-methyl-3-(pyrimidin-2-yl)pyridin-2-yl)((1S,4S,6R)-6-((5-(trifluoromethyl)pyrazin-2-yl)amino)-2-azabicyclo[2.2.1]heptan-2-yl)methanone] | 163 | 15 | 13
O=C(c1cccc(F)c1-n1nccn1)N1C[C@H]2C[C@@H](Nc3cnc(C(F)(F)F)cn3)[C@@H]1C2 [Example 192, (3-fluoro-2-(2H-1,2,3-triazol-2-yl)phenyl)((1S,4S,6R)-6-((5-(trifluoromethyl)pyrazin-2-yl)amino)-2-azabicyclo[2.2.1]heptan-2-yl)methanone] | 249 | 8 | 7
O=C(c1ccc(F)cc1-n1nccn1)N1C[C@H]2C[C@@H](Nc3cnc(C(F)(F)F)cn3)[C@@H]1C2 [Example 193, (4-fluoro-2-(2H-1,2,3-triazol-2-yl)phenyl)((1S,4S,6R)-6-((5-(trifluoromethyl)pyrazin-2-yl)amino)-2-azabicyclo[2.2.1]heptan-2-yl)methanone] | 2000 | 40 | 65
O=C(c1cc(F)ccc1-n1nccn1)N1CC2CC(Nc3cnc(C(F)(F)F)cn3)C1C2 [Example 194, ((5-fluoro-2-(2H-1,2,3-triazol-2-yl)phenyl)((1S,4S,6R)-6-((5-(trifluoromethyl)pyrazin-2-yl)amino)-2-azabicyclo[2.2.1]heptan-2-yl)methanone] | 241 | 8 | 8
O=C(c1c(F)cccc1-n1nccn1)N1C[C@H]2C[C@@H](Nc3cnc(C(F)(F)F)cn3)[C@@H]1C2 [Example 195, (2-fluoro-6-(2H-1,2,3-triazol-2-yl)phenyl)((1S,4S,6R)-6-((5-(trifluoromethyl)pyrazin-2-yl)amino)-2-azabicyclo[2.2.1]heptan-2-yl)methanone] | 199 | 9 | 8
